For 4 compounds, IC₅₀ and IC50 results are on record in EP0400562A1, “Pyrrolopyrimidines, their production and use as tumoricidal agents” (Takeda Chemical Industries, Ltd., priority 1989, dated 1990).

Values after ≈ are worked out from the molar mass of the structure shown.

The test deals with Human epidermoid carcinoma KB cells. As to the kind of experiment: cell growth inhibiting effect in KB cells (MTT method). The class given is cell-based. To be noted: 72 hours culture with compound, absorbance at 590nm, concentration required to decrease the number of cells in the untreated control group by 50%. As for the experimental part:
The cell growth inhibiting effect (IC₅₀)of the compounds obtained in the Examples described below in KB cells was determined by the following method.
Human epidermoid carcinoma KB cells (1 x 10⁴ cells/ml) prepared according to a conventional method were inoculated into each well of the 96-microwell plate (0.1ml in a well) and subjected to standing culture at 37°C under 5% CO₂ for 24 hours. To this was added a solution of one of the compounds obtained in the Examples in 10% MEM (Nissui Pharmaceutical Co. Ltd. Japan), and subjected again to standing culture at 37°C under 5% CO₂ for 72 hours. Then the culture was pipetted out, and another 0.1ml of the solution of MTT (Dojin Laboratories Japan) in 10 % MEM (1.0mg/ml) was added and incubated at 37°C for 4 hours. Then 0.1ml of the […] (Wako Pure Chemicals, Japan) was added and incubated at 37°C for further 24 hours. The absorbance at 590nm was measured and the IC₅₀ value of the compound was defined as the concentration of the compound required to decrease the number of cells in the untreated control group by 50%.
On the technique in general: Tetrazolium assays rely on reduction of a dye to a coloured formazan, in cell work by metabolically active cells.

`CN(CCC1CNc2nc(N)nc(N)c21)c1ccc(C(=O)N[C@@H](CCC(=O)O)C(=O)O)cc1` (stereo partly drawn) [Example 4, N-[4-[N-[2-(2,4-diamino-6,7-dihydro-5H-pyrrolo[2,3-d]pyrimidin-5-yl)ethyl]-N-methyl]aminobenzoyl]-L-glutamic acid]: the IC₅₀ was 0.0025 µg/mL. Same read-out and setting: the same measure for `CN(CCc1c[nH]c2nc(N)nc(N)c12)c1ccc(C(=O)N[C@@H](CCC(=O)O)C(=O)O)cc1` [Example 6, N-[4-[N-[2-(2,4-diamino-7H-pyrrolo[2,3-d]pyrimidin-5-yl)ethyl]-N-methyl]aminobenzoyl]-L-glutamic acid]: 0.0013 µg/mL; for `Nc1nc(N)c2c(n1)NCC2CCNc1ccc(C(=O)N[C@@H](CCC(=O)O)C(=O)O)cc1` (stereo partly shown) [Example 10]: 0.0025 µg/mL. For `CCCCCCCC(=O)Nc1nc(S)c2c(CNCc3ccc(C(=O)N[C@@H](CCC(=O)OCC)C(=O)OCC)cc3)c[nH]c2n1` [Example 13, diethyl N-[4-[N-(4-mercapto-2-octanoylamino-7H-pyrrolo[2,3-d]pyrimidin-5-ylmethyl)aminomethyl]benzoyl] -L-glutamate], the IC50 (Homo sapiens, read-out: IC₅₀) came to 5 ng/mL (≈ 7.8 nM).
